Data taken from patent US20260315483A1, “HETEROCYCLIC COMPOUNDS AS TRIGGERING RECEPTOR EXPRESSED ON MYELOID CELLS 2 AGONISTS AND METHODS OF USE” (VIGIL NEUROSCIENCE, INC., priority 2023, published 2026).

Biological target: T1, human TREM2 (Homo sapiens, UniProt Q9NZC2)
T1 construct: expressed in transfected cells; host or cells: HEK293T-hTREM2 cells (HEK cell line expressing human TREM2 and DAP12)
Test: In vitro measurement of TREM2 activity using cellular phosphorylation of spleen tyrosine kinase (Syk), AlphaLisa, HEK293T-hTREM2 cells
Format: cell-based
Settings: HEK293T cells expressing human TREM2 and DAP12, 45 min at room temperature, Table D
Protocol: In Vitro Measurement of Triggering Receptor Expressed on Myeloid Cells 2 Activity Using Cellular Phosphorylation of Spleen Tyrosine Kinase (“Syk”) Assays
Measurement of TREM2 agonist potency was done using a HEK cell line expressing human TREM2 and DAP12 (HEK293T-hTREM2 cells). Binding of small molecules to, and activation of, TREM2 increases the phosphorylation of Syk. The resultant levels of Syk phosphorylation are measured using a commercial AlphaLisa reagent kit. To perform the assay, HEK-hTREM2 cells were plated at 14,000 cells per well in a 384 well plate, in 25 μL of complete growth media and incubated at 37° C., 5% CO2 for 20-24 hours.
Prior to the assay, test compounds were diluted in the 384 well plates in assay buffer and allowed to equilibrate for 30 minutes. Growth media was removed from cell plates by inversion on blotting paper, and 25 μL of test articles in assay buffer was added to cells. Cells were incubated for 45 minutes at room temperature. After 45 minutes, assay buffer was removed and 10 μL of lysis buffer was added. Plates were shaken for 20 minutes at 350 RPM at room temperature. After complete lysis, AlphaLisa reagents were added to the lysate, and fluourescence intensity was measured using a Perkin Elmer Envision plate reader. Intensities were used to generate a standard curve, and % activation was calculated. Curve fitting was performed using Prism v9 software, log(agonist) vs response—variable slope (four parameters), and EC50s were calculated from the curve fit.
The results presented in Tables D and D-2 have been generated with the in vitro assay described above. This assay may be used to test any of the compounds described herein to assess and characterize a compound's ability to act as an agonist of TREM2.

T1 sequence (Q9NZC2 19-230): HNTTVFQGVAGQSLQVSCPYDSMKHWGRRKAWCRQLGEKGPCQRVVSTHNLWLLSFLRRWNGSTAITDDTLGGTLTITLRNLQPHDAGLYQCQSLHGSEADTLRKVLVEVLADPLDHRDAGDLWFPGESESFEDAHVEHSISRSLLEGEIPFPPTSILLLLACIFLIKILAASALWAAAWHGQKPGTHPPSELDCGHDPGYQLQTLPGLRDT
T1 sequence (O43914 22-113 partner): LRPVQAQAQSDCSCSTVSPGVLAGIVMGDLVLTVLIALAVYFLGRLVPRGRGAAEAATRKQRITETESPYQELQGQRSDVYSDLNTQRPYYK

| Compound | EC50 |
| --- | --- |
| CN(C)c1nc2nc([C@H]3CCO[C@@H](c4cnn(C5CC5)c4)C3)nc(-c3ccc(C(F)F)cc3F)c2s1 [compound 103, 5-[(2R,4S)-2-(1-cyclopropylpyrazol-4-yl)tetrahydropyran-4-yl]-7-[4-(difluoromethyl)-2-fluoro-phenyl]-N,N-dimethyl-thiazolo[4,5-d]pyrimidin-2-amine] | 50 to 500 nM |
| CN(C)c1nc2nc([C@H]3CCO[C@@H](c4cnn(C5CC5)c4)C3)nc(-c3cc(F)c(Cl)cc3F)c2s1 [compound 105, 7-(4-chloro-2,5-difluoro-phenyl)-N,N-dimethyl-5-[(2R,4S)-2-(1-cyclopropylpyrazol-4-yl)tetrahydropyran-4-yl]thiazolo[4,5-d]pyrimidin-2-amine] | ≤ 50 nM |
| C[C@@H]1CN(c2nc(-c3ccc(F)cc3F)c3sc(N4CCC[C@H]4C)nc3n2)C[C@H](c2cnn(C3CC3)c2)O1 [compound 109, (2S,6R)-2-(1-cyclopropyl-1H-pyrazol-4-yl)-4-(7-(2,4-difluorophenyl)-2-((R)-2-methylpyrrolidin-1-yl)thiazolo[4,5-d]pyrimidin-5-yl)-6-methylmorpholine] | ≤ 50 nM |
| Cc1ccc(-c2nc(N3C[C@@H](C)O[C@@H](c4cnn(C5CC5)c4)C3)nc3nc(N(C)C)sc23)c(F)c1 [compound 110, 5-[(2S,6R)-2-(1-cyclopropylpyrazol-4-yl)-6-methyl-morpholin-4-yl]-7-(2-fluoro-4-methyl-phenyl)-N,N-dimethyl-thiazolo[4,5-d]pyrimidin-2-amine] | ≤ 50 nM |
| C[C@@H]1CN(c2cc(-c3ccc(F)cc3F)c3sccc3n2)C[C@H](c2cnn(C3CC3)c2)O1 [compound 111, (2S,6R)-2-(1-cyclopropylpyrazol-4-yl)-4-[7-(2,4-difluorophenyl)thieno[3,2-b]pyridin-5-yl]-6-methyl-morpholine] | 500 to 3000 nM |
| C[C@@H]1CN(c2nc(-c3ccc(F)cc3F)c3sc(N4CCC[C@@H]4C)nc3n2)C[C@H](c2cnn(C3CC3)c2)O1 [compound 112, (2S,6R)-2-(1-cyclopropylpyrazol-4-yl)-4-[7-(2,4-difluorophenyl)-2-[(2S)-2-methylpyrrolidin-1-yl]thiazolo[4,5-d]pyrimidin-5-yl]-6-methyl-morpholine] | ≤ 50 nM |
| CC(C)c1nc2nc(N3C[C@@H](C)O[C@@H](c4cnn(C5CC5)c4)C3)nc(-c3ccc(F)cc3F)c2s1 [compound 113, (2S,6R)-2-(1-cyclopropyl-1H-pyrazol-4-yl)-4-(7-(2,4-difluorophenyl)-2-isopropylthiazolo[4,5-d]pyrimidin-5-yl)-6-methylmorpholine] | ≤ 50 nM |
| CCCc1nc2nc(N3C[C@@H](C)O[C@@H](c4cnn(C5CC5)c4)C3)nc(-c3ccc(F)cc3F)c2s1 [compound 114, (2S,6R)-2-(1-cyclopropyl-1H-pyrazol-4-yl)-4-(7-(2,4-difluorophenyl)-2-propylthiazolo[4,5-d]pyrimidin-5-yl)-6-methylmorpholine] | ≤ 50 nM |
| Cc1cc([C@@H]2C[C@H](c3nc(-c4ccc(F)cc4F)c4sc(N(C)C)nc4n3)CCO2)ccn1 [compound 115, 7-(2,4-difluorophenyl)-N,N-dimethyl-5-[(2S,4R)-2-(2-methyl-4-pyridyl)tetrahydropyran-4-yl]thiazolo[4,5-d]pyrimidin-2-amine] | 500 to 3000 nM |
| Cc1cc([C@H]2C[C@@H](c3nc(-c4ccc(F)cc4F)c4sc(N(C)C)nc4n3)CCO2)ccn1 [compound 116, 7-(2,4-difluorophenyl)-N,N-dimethyl-5-[(2R,4S)-2-(2-methyl-4-pyridyl)tetrahydropyran-4-yl]thiazolo[4,5-d]pyrimidin-2-amine] | ≤ 50 nM |
| C[C@@H]1CN(c2nc(-c3ccc(C(F)(F)F)cc3)c3sc(N(C)C)nc3n2)C[C@H](c2cnn(C3CC3)c2)O1 [compound 117, 5-[(2S,6R)-2-(1-cyclopropyl-pyrazol-4-yl)-6-methyl-morpholin-4-yl]-N,N-dimeth-yl-7-[4-(trifluoromethyl)-phenyl]thiazolo[4,5-d]pyr-imidin-2-amine] | 50 to 500 nM |
| CC(C)Oc1nc2nc(N3C[C@@H](C)O[C@@H](c4cnn(C5CC5)c4)C3)nc(-c3ccc(C(F)(F)F)cc3F)c2s1 [compound 118, (2S,6R)-2-(1-cyclopropylpyrazol-4-yl)-4-[7-[2-fluoro-4-(trifluoromethyl)-phenyl]-2-isopropoxy-thiazolo[4,5-d]pyrimidin-5-yl]-6-methyl-morpholine] | 500 to 3000 nM |
| Cc1cc([C@H]2CN(c3nc(-c4ccc(F)cc4F)c4sc(N(C)C)nc4n3)C[C@@H](C)O2)ccn1 [compound 123, 7-(2,4-difluorophenyl)-N,N-dimethyl-5-[(2R,6S)-2-methyl-6-(2-methyl-4-pyridyl)morpholin-4-yl]thiazolo[4,5-d]pyrimidin-2-amine] | ≤ 50 nM |
| C[C@@H]1CCCN1c1nc2nc([C@H]3CCO[C@@H](c4cnn(C5CC5)c4)C3)nc(-c3ccc(F)cc3F)c2n1C [compound 124, 6-(2,4-difluorophenyl)-7-methyl-2-[(2R,4S)-2-(1-cyclopropylpyrazol-4-yl)tetrahydropyran-4-yl]-8-[(2R)-2-methylpyrrolidin-1-yl]purine] | 50 to 500 nM |
| C[C@H]1CCCN1c1nc2nc([C@H]3CCO[C@@H](c4cnn(C5CC5)c4)C3)nc(-c3ccc(F)cc3F)c2n1C [compound 125] | 50 to 500 nM |
| C[C@@H]1CN(c2nc(-c3ccc(C(F)(F)F)cc3F)c3[nH]c(N(C)C)nc3n2)C[C@H](c2cnn(C3CC3)c2)O1 [compound 126, 2-((2S,6R)-2-(1-cyclopropyl-1H-pyrazol-4-yl)-6-methylmorpholino)-6-(2-fluoro-4-(trifluoromethyl)phenyl)-N,N-dimethyl-9H-purin-8-amine] | 50 to 500 nM |
| Cn1c(C(F)F)nc2nc([C@H]3CCO[C@@H](c4cnn(C5CC5)c4)C3)nc(-c3ccc(C(F)(F)F)cc3F)c21 [compound 127, 2-[(2R,4S)-2-(1-cyclopropylpyrazol-4-yl)tetrahydropyran-4-yl]-8-(difluoromethyl)-6-[2-fluoro-4-(trifluoromethyl)phenyl]-7-methyl-purine] | 50 to 500 nM |
| CN(C)c1nc2c(C34CC(C(F)(F)F)(C3)C4)nc([C@H]3CCO[C@@H](c4cnn(C5CC5)c4)C3)nc2n1C [compound 128, 2-[(2R,4S)-2-(1-cyclopropylpyrazol-4-yl)tetrahydropyran-4-yl]-N,N-9-trimethyl-6-[3-(trifluoromethyl)-1-bicyclo[1.1.1]pentanyl]purin-8-amine] | 500 to 3000 nM |
| CN(C)c1nc2nc([C@H]3CCO[C@@H](c4cnn(C5CC5)c4)C3)nc(C34CC(C(F)(F)F)(C3)C4)c2[nH]1 [compound 129, 2-[(2R,4S)-2-(1-cyclopropylpyrazol-4-yl)tetrahydropyran-4-yl]-N,N-dimethyl-6-[3-(trifluoromethyl)-1-bicyclo[1.1.1]pentanyl]-7H-purin-8-amine] | 500 to 3000 nM |
| C[C@@H]1CN(c2nc(C34CC(C(F)(F)F)(C3)C4)c3c(n2)nc(N(C)C)n3C)C[C@H](c2cnn(C3CC3)c2)O1 [compound 130, 2-[(2S,6R)-2-(1-cyclopropylpyrazol-4-yl)-6-methyl-morpholin-4-yl]-N,N,7-trimethyl-6-[3-(trifluoromethyl)-1-bicyclo[1.1.1]pentanyl]purin-8-amine] | ≤ 50 nM |
| C[C@@H]1CN(c2cc(-c3ccc(F)cc3F)n3ncnc3n2)C[C@H](c2cnn(C3CC3)c2)O1 [compound 131, (2S,6R)-2-(1-cyclopropyl-1H-pyrazol-4-yl)-4-(7-(2,4-difluorophenyl)-[1,2,4]triazolo[1,5-a]pyrimidin-5-yl)-6-methylmorpholine] | 500 to 3000 nM |
